Data reported in patent US9957214B2, “Multifunctional radical quenchers” (ARIZONA BOARD OF REGENTS ON BEHALF OF ARIZONA STATE …, priority 2012, dated 2018).

Experiments:
[1] = system: differentiated SH-SY5Y cells; assay: Neuroprotection against Aβ 1-42 oligomer induced cytotoxicity (WST-1); type: cell-based, human; settings: Aβ 1-42 oligomers 2.5 μM, 48 h
Method: FIG. 8. Effect of nitrogen-containing 1,4-benzoquinone 40 and geldanamycin on Aβ 1-42 induced neurotoxicity in differentiated SH-SY5Y cells.
The cytotoxic effect of Aβ 1-42 oligomers (2.5 μM) on differentiated SH-SY5Y cells was evaluated in presence and absence of the test compounds. Sequential treatment of the human SH-SY5Y neuroblastoma cell line with retinoic acid and brain-derived neurotrophic factor (BDNF) generates nearly pure populations of human neuron-like cells, thus providing a model for the study of neuronal differentiation and neuroprotection as previously described, with some modifications (Encinas et al. (2000) J. Neurochem. 75, 991-1003). […] The plates were incubated at 37° C. in an atmosphere having 95% humidity and 5% CO2 for 48 h and then cell viability was measured using a WST-1 Kit (Roche Diagnostics). […] Color intensity was measured with a 96-well plate at 450 nm using a SpectraMax M5 microplate reader (Molecular Devices, Sunnyvale, Calif.). Results are expressed as percentage of viable cells relative to untreated control after subtracting background. Data are expressed as means±S.E.M. (n=3).
Synthetic human Aβ 1-42 was purchased from AnaSpec (San Jose, Calif.). […] Aβ 1-42 peptide content was determined by the method of bicinchoninic acid assay (micro-BCA kit, Pierce) using BSA as reference.

[2] = system: Friedreich's ataxia lymphoblast cell line GM15850; assay: Cytoprotection (trypan blue exclusion assay) of DEM-treated FRDA lymphocytes; type: cell-based; settings: Homo sapiens, GM15850; 5 μM; DEM alone 18 ± 10% viability; read-out: Cytoprotection (cell viability, % of untreated control)
Method: Cell viability was determined by trypan blue exclusion assay in Friedreich's ataxia lymphoblast cell line GM15850 (Coriell Institute, New Jersey). This technique was used to assess the cytoprotective effects of the tested compounds in cultured cells treated with DEM to induce cell death by GSH depletion. The viability of DEM-treated FRDA cells was determined by their ability to exclude the dye trypan blue. Viable cells exclude trypan blue, whereas non-viable cells take up the dye and stain blue. Briefly, FRDA lymphocytes were grown in RPMI 1640 medium (Gibco) supplemented with 15% fetal calf serum, 2 mM glutamine (HyClone) and 1% penicillin-streptomycin mix (Cellgro). Cells were seeded at a density of 5×10^5 cells/mL and treated with different concentrations of the indicated compounds. Cells were incubated at 37° C. in a humidified atmosphere of 5% CO2 in air for 17 h. After pre-incubation, the cells were treated with 5 mM DEM. Cell viability was determined by staining cells with 0.4% trypan blue using a hemacytometer. At least 500 cells were counted in each experimental group. At the time of assay, <20% of DEM treated cells were viable (trypan blue negative), whereas in non DEM-treated control, >90% cells were viable. Cell viability was expressed as the percentage of control. Data are expressed as means±S.E.M. (n=3).
Cell viability was determined by trypan blue exclusion assay in Friedreich's ataxia lymphoblast cell line GM15850 (Coriell Institute). This technique was used to assess the cytoprotective effects of the compounds in cultured cells treated with diethyl maleate (DEM) to induce cell death by glutathione (GSH) depletion. The viability of DEM-treated FRDA cells was determined by their ability to exclude the dye trypan blue. Viable cells exclude trypan blue, whereas non-viable cells take up the dye and stain blue. […] Benzoquinone analogue 9 afforded greater cyoprotection to FRDA lymphocytes at 5 μM concentration than did the tert-butyl ester 6 (74 vs 50%).

[3] = biological target: bovine heart mitochondrial complex I (Bos taurus, UniProt P03887+P17694+P42026); assay: Complex I (NADH-Q1 oxidoreductase) inhibition in submitochondrial particles; type: biochemical; settings: submitochondrial particles, 30° C.
bovine heart mitochondrial complex I, sequence (P25708 21-464): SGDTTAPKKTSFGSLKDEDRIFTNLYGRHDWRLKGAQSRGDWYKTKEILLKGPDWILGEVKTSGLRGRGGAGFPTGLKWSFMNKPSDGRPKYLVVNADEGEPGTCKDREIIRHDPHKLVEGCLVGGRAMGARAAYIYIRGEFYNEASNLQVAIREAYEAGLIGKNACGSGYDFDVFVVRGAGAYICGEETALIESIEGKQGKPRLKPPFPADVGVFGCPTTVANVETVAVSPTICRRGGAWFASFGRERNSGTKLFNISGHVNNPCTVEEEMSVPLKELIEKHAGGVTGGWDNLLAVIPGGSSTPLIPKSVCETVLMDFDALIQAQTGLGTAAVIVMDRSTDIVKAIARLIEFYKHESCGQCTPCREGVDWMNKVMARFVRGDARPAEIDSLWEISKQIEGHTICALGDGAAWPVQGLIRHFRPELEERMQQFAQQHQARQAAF
bovine heart mitochondrial complex I, sequence (P42026 38-216): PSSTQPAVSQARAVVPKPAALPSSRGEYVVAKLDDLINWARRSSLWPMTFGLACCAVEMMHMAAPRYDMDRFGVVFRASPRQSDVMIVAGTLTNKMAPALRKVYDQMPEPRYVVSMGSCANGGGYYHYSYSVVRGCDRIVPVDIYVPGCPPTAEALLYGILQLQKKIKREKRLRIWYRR
bovine heart mitochondrial complex I, sequence (P17694 34-463): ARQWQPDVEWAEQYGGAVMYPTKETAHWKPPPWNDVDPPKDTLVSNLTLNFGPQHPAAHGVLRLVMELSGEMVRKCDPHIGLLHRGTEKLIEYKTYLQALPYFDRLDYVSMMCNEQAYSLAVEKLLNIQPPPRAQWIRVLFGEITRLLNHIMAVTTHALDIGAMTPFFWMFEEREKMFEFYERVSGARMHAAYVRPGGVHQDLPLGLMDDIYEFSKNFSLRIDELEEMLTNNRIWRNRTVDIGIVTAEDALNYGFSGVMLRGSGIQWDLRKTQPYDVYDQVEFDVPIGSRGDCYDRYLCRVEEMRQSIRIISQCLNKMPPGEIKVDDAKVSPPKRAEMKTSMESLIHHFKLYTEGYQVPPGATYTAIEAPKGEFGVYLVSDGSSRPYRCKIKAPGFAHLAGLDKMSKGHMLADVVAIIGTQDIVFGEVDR
bovine heart mitochondrial complex I, sequence (P15690 24-727, further chain): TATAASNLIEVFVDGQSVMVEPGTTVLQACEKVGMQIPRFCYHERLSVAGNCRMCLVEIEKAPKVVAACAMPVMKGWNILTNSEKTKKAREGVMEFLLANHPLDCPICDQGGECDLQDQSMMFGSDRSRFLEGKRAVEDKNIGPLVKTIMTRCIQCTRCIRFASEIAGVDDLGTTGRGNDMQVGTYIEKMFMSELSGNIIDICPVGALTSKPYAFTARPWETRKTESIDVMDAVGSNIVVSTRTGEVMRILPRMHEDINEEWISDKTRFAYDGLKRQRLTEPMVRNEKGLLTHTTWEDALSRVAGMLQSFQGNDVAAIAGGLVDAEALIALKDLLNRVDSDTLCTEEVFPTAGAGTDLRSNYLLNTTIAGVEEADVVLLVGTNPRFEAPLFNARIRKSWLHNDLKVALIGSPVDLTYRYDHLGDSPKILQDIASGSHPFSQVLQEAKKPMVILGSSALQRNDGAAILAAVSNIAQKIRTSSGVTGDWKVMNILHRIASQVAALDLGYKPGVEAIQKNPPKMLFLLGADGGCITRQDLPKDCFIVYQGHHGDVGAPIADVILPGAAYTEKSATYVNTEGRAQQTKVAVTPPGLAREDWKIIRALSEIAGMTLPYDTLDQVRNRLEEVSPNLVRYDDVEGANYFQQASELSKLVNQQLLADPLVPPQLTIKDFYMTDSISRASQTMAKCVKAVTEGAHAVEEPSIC
bovine heart mitochondrial complex I, sequence (P03887 whole entry): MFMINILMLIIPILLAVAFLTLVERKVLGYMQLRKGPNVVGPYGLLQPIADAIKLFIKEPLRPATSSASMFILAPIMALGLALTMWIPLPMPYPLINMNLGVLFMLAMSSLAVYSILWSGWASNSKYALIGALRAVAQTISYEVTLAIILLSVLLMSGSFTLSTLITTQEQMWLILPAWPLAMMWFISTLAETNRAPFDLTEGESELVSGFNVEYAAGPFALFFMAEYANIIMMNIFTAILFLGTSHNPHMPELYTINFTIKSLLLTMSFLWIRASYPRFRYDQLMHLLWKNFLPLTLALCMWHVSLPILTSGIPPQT
bovine heart mitochondrial complex I, sequence (P42028 37-212, further chain): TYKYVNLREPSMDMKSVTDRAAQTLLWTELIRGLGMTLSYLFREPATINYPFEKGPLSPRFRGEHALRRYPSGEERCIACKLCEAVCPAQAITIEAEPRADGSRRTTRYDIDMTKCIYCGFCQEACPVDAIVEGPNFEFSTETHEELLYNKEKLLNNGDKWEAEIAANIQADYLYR

FRDA lymphocytes = assay: Preservation of mitochondrial membrane potential (TMRM flow cytometry) in DEM-treated FRDA lymphocytes; type: cell-based
Method: FIG. 3. Effect of nitrogen-containing 1,4-benzoquinone derivatives on mitochondrial membrane potential of cultured FRDA cells. Representative flow cytometric two dimensional color density dot plot analyses of mitochondrial membrane potential Δψm in FRDA lymphocytes stained with TMRM and analyzed using the FL2-H channel as described in Experimental Section. The cells were washed twice in phosphate buffered saline, and suspended in phosphate buffered saline containing 20 mM glucose. The percentage of cells with intact Δψm is indicated in the top right quadrant of captions. In each analysis, 10,000 events were recorded. Data are expressed as means±SEM of three independent experiments run in duplicate.
Mitochondrial membrane potential was measured using two different fluorescent dyes, TMRM and JC-1. Δψm was determined as previously described by staining FRDA lymphocyte cells with TMRM (Molecular Probes, Eugene, Oreg.) and analyzing fluorescence emission by flow cytometry in detection channel 2 (FL2-H) (Khdour et al. (2011) Pharmaceut. Res. 28, 2896-2909). Briefly, FRDA lymphocytes were pre-treated with or without the test compounds for 16 h. The cells were treated with 5 mM DEM for 140 min, collected by centrifugation at 300×g for 3 min and then washed twice with phosphate buffered saline. The cells were resuspended in PBS containing […] and incubated at 37° C. in the dark for 15 min with 250 nM TMRM. Cells were collected by centrifugation at 300×g for 3 min and were then washed with phosphate buffered saline. The samples were analyzed immediately by flow cytometry using a 488 nm excitation laser and the FL2-H channel. The results obtained were verified in three independent experiments. […] In each analysis, 10,000 events were recorded. […] The following day, cells were treated with tested compounds and incubated for an additional 12 h before treatment with 1 mM BSO. Δψm was assessed after 24 h using JC-1 Mitochondrial Membrane Potential Detection Kit (Biotium, Inc) following the manufacturer instruction. Glass cover slips were rinsed with phosphate-buffered saline and mounted onto slides, and images were recorded and analyzed with a Zeiss AxioCam MRm and AxioVision 3.1 software (Carl Zeiss Goettingen, Germany) on a Zeiss Axiovert 200 M inverted microscope, equipped with a 40× oil immersion objective.
The ability of the test compounds to preserve mitochondrial membrane potential under conditions of oxidative stress was studied. […] Changes in mitochondrial membrane potential (Δψm) were measured using two different fluorescent dyes, tetramethylrhodamine methyl ester (TMRM) and 5,5′,6,6′-tetrachloro-1,1′,3,3′-tetraethylbenzimidazolocarbocyanine iodide (JC-1). […] The fluorescence signal of TMRM can be directly co-related to Δψm across the inner mitochondrial membrane. […]

| SMILES | Effect on Aβ 1-42 induced cytotoxicity (in words) [1] | viability at 5 µM [2] [%] | IC50 ([3]; read-out: Complex I inhibition IC50) [µM] | Emax ([3]; read-out: Complex I inhibition Imax) [%] | Preservation of mitochondrial membrane potential Δψm (in words) (FRDA lymphocytes) |
| --- | --- | --- | --- | --- | --- |
| COC1=C2C[C@@H](C)C[C@H](OC)[C@H](O)[C@@H](C)/C=C(\C)[C@H](OC(N)=O)[C@@H](OC)/C=C\C=C(/C)C(=O)NC(=CC1=O)C2=O [geldanamycin, reference compound] | increased cytotoxicity |  |  |  |  |
| CCCCCCCCCCCCCC1=C(OC)C(=O)C=C(NCCCC(=O)OCCCC)C1=O [Compound 15, Butyl 4-(4-methoxy-3,6-dioxo-5-tridecylcyclohexa-1,4-dienylamino)butanoate] |  | 82 ± 2.9 | 98 ± 8 | ≥ 60 | prevented the loss of Δψm |
